Measured values: PubChem BioAssay (NCI)
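96-well plates; 48 h exposure; 5 concentrations. Endpoints by linear interpolation between flanking doses. Not reached: highest tested concentration assigned. Definition used: TGI = concentration required for complete inhibition of growth.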

Legend:
Assay in all cases: NCI tumour cell line growth inhibition, 48 h
[1] = tested on: HOP-62 NSCLC
[2] = tested on: T-47D breast
[3] = tested on: UO-31 renal
[4] = tested on: UACC-62 melanoma
[5] = tested on: NCI-H23 lung
[6] = tested on: TK-10 renal
[7] = tested on: MCF7 breast
[8] = tested on: OVCAR-3 ovarian
[9] = tested on: RPMI-8226 leukemia
[10] = tested on: SF-539 CNS

Compound	TGI [1]	TGI [2]	TGI [3]	TGI [4]	TGI [5]	TGI [6]	TGI [7]	TGI [8]	TGI [9]	TGI [10]
C=CCNC(=O)CN(CC(=O)O)C1CCCCC1N(CC(=O)O)CC(=O)O (stereo not given)	> 100 µM	> 100 µM	> 100 µM	> 100 µM	> 100 µM	> 100 µM	> 100 µM	> 100 µM	> 100 µM	> 100 µM
O=c1[nH]c(=O)n(C2C(CO)OC(CO)C2O)cc1F (stereo not given)	> 100 µM	> 100 µM	> 100 µM	> 100 µM	> 100 µM	> 100 µM	> 100 µM	> 100 µM	> 100 µM	> 100 µM
O=C(O)CC12CC3CC(CC(O)(C3)C1)C2	> 100 µM	> 100 µM	> 100 µM	> 100 µM	> 100 µM	> 100 µM	> 100 µM	> 100 µM	> 100 µM	> 100 µM
O=c1cc(CNC2CC3CCC2C3)[nH]c(=O)[nH]1 (stereo not given)	> 100 µM	> 100 µM	> 100 µM	> 100 µM	> 100 µM	> 100 µM	> 100 µM	> 100 µM	> 100 µM	> 100 µM
COC(=O)[C@@]1(NC(=O)C(CC(=O)OC(C)(C)C)NC(=O)OC(C)(C)C)C[C@H]1C (stereo not given in full)	> 100 µM	> 100 µM	> 100 µM	> 100 µM	> 100 µM	> 100 µM	> 100 µM	> 100 µM	> 100 µM	> 100 µM
COc1cccc(C(NC2=NCCC=N2)c2cc3c(cc2O)OCO3)c1O (stereo not given)	55.5 µM	63.5 µM	> 100 µM	59 µM	> 100 µM	> 100 µM	35.3 µM	59.7 µM	50 µM	46.8 µM
O=C(NCCCCCCCN1CCCCCCC1)C(C1CCCCC1)C1CCCCC1	14.4 µM	23 µM	21.3 µM	10.1 µM	28.5 µM	25.6 µM	19.8 µM	18.6 µM	6.71 µM	24.6 µM
O/N=C1/CCCc2nonc21	> 100 µM	> 100 µM	> 100 µM	> 100 µM	> 100 µM	> 100 µM	> 100 µM	> 100 µM	> 100 µM	> 100 µM
O=[N+]([O-])C(=C/c1cccc2ccccc12)/C(=C\c1cccc2ccccc12)[N+](=O)[O-]	7.03 µM	10.6 µM	3.66 µM	3.23 µM	4.36 µM	4.65 µM	16.8 µM	15.5 µM	6.05 µM	5.63 µM
CCCCN(C)C(=O)C1=C(C)NC(C)=C(C(=O)N(C)CCCC)C1	> 100 µM	> 100 µM	> 100 µM	> 100 µM	> 100 µM	> 100 µM	> 100 µM	> 100 µM	> 100 µM	> 100 µM
CC(C)CCC[C@@H](C)[C@H]1CC[C@H]2C3=C[C@H](OS(=O)(=O)O)[C@@]4(O)C[C@@H](O)CC[C@]4(C)[C@@]3(O)CC[C@]12C	> 100 µM	> 100 µM	> 100 µM	> 100 µM	> 100 µM	> 100 µM	> 100 µM	> 100 µM	> 100 µM	> 100 µM
O=C1CSC(c2ccccc2O)N1c1ccc(Oc2ccc(Cl)cc2)c(Cl)c1 (stereo not given)	42.3 µM	46.8 µM	20.7 µM	34.3 µM	46.6 µM	> 100 µM	86.3 µM	62.4 µM	89.1 µM	32.9 µM
CCOC(=O)/C=C/C1(CCOC(C)=O)CCCCC1	> 10 µM	> 10 µM	> 10 µM	> 10 µM	> 10 µM	> 10 µM	> 10 µM	> 10 µM	> 10 µM	> 10 µM
COC1=C2CC(C)CC(OC)C(OC(=O)CCCN)C(C)/C=C(\C)C(OC(N)=O)C(OC)/C=C\C=C(/C)C(=O)NC(=CC1=O)C2=O (stereo not given)	32 µM	4.65 µM	23.1 µM	18.7 µM	14.4 µM	20.2 µM	13.2 µM	16.8 µM	32.5 µM	16.9 µM
NC(=O)c1sc2nc3ccccc3n2c1N	> 100 µM	> 100 µM	> 100 µM	> 100 µM	41.4 µM	> 100 µM	> 100 µM	> 100 µM	> 100 µM	45.9 µM
N#Cc1c(-c2ccccc2)cc(-c2ccccc2)n(C2OCC(O)C(O)C2O)c1=S (stereo not given)	64.7 µM	26.6 µM	54 µM	16.1 µM	46.4 µM	58.2 µM	41.7 µM	43.2 µM	34.7 µM	41.9 µM
O=C1C=C(C2=C(C3=CC(=O)c4ccccc4C3=O)C(=O)c3ccccc3C2=O)C(=O)c2ccccc21	33.5 µM	29.5 µM	11.1 µM	31.6 µM	19.7 µM	21.8 µM	29.6 µM	12.9 µM	12.2 µM	21.7 µM
CCOC(=O)/C=C\C(C#N)(C#N)N=Cc1ccsc1	36.9 µM	4.49 µM	5.71 µM	32 µM	29.9 µM	4.63 µM	8 µM	6.42 µM	4.25 µM	12.9 µM
